Experimental data published in PubChem BioAssay (NCI).
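In this assay, cells in 96-well plates receive the compound at five concentrations for 48 hours. Endpoints are linearly interpolated between the surrounding concentrations. The concentration for 50% growth inhibition is given as GI50. Definition used: TGI = concentration required for complete inhibition of growth.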

Legend:
Assay in all cases: NCI tumour cell line growth inhibition, 48 h
[1] = tested on: 786-0 renal
[2] = tested on: CCRF-CEM leukemia
[3] = tested on: HCT-116 colon
[4] = tested on: HT29 colon
[5] = tested on: SF-268 CNS
[6] = tested on: SK-MEL-2 melanoma
[7] = tested on: SK-MEL-5 melanoma
[8] = tested on: SNB-19 CNS
[9] = tested on: SW-620 colon

| SMILES | GI50 [1] [µM] | TGI [1] [µM] | GI50 [2] [µM] | TGI [2] [µM] | GI50 [3] [µM] | TGI [3] [µM] | GI50 [4] [µM] | TGI [4] [µM] | GI50 [5] [µM] | TGI [5] [µM] | GI50 [6] [µM] | TGI [6] [µM] | GI50 [7] [µM] | TGI [7] [µM] | GI50 [8] [µM] | TGI [8] [µM] | GI50 [9] [µM] | TGI [9] [µM] |
| --- | --- | --- | --- | --- | --- | --- | --- | --- | --- | --- | --- | --- | --- | --- | --- | --- | --- | --- |
| Cn1cc(C2=C(c3cn(CCN)c4ccccc34)C(=O)NC2=O)c2ccccc21 | 8.98 | > 25 | 6.05 | > 22.7 | 5.57 | > 25 | 4.2 | 15.7 | 7.41 | 20.4 | 5.12 | 12.1 | 4.59 | 13 | 8.13 | > 25 | 6.25 | > 20.1 |
| NS(=O)(=O)c1ccc(CCN=C=S)cc1 | 1.71 | 3.34 | 2.65 | 7.45 | 1.75 | 3.45 | 2.54 | 6.66 | 2.83 | 10.1 | 2.3 | 5.84 | 2.14 | 4.89 | 2.92 | 9.26 | 1.84 | 3.96 |
| COc1cc(C(=O)c2cc3c(cc2C)OCO3)cc(OC)c1OC | 0.322 | > 100 | 0.0434 | > 100 | 0.0682 | > 100 | 0.105 | > 100 | 0.36 | > 100 | 0.734 | > 100 | 0.0454 | 1.74 | – | > 100 | 0.0608 | > 100 |
| O=C(/C=C\c1ccc(Cl)cc1Cl)c1cccs1 | – | 34.6 | – | 73.6 | – | 23.5 | – | 64.5 | – | 53.3 | – | 35.5 | – | 29.9 | – | 33.7 | – | 28.8 |
| C[C@@H]1C=C2C(=O)O[C@@H]3CC[C@H](C1)[C@]23O | 4.29 | 17.7 | 2.66 | 11.5 | 3.13 | 13.8 | 3.46 | 13.4 | 5.24 | 30.4 | – | 11.4 | 10.9 | 24 | 22.9 | 93.8 | – | 12.8 |
| COc1ccc(-c2ccc(C3CC(c4ccc(Cl)cc4)=NN3)o2)c([N+](=O)[O-])c1 (configuration not stated) | > 100 | > 100 | > 100 | > 100 | > 100 | > 100 | > 100 | > 100 | > 100 | > 100 | > 100 | > 100 | > 100 | > 100 | > 100 | > 100 | > 100 | > 100 |
| NCCNC(=S)S | – | > 100 | – | 90.6 | – | > 100 | – | > 100 | – | 31.1 | – | > 100 | – | > 100 | – | > 100 | – | > 100 |
| CCCCCCCC[N+](C)(CCCCCCCC)CCCCCCCC | 0.345 | 1.3 | 0.189 | 0.525 | 0.272 | 1.24 | 0.295 | 1.25 | 0.441 | 1.53 | 0.356 | 8.81 | 0.178 | 0.344 | 0.398 | 1.54 | 0.338 | 1.46 |
| COc1ccc2c(c1)CCC1C2CC[C@]2(C)/C(=N/OC(=O)Cc3ccccc3)CCC12 (some centres not stated) | 18.3 | 33.3 | 13.6 | 49.9 | 13.4 | 26.2 | 22.6 | > 100 | 18.7 | 34.4 | 18.6 | 48.6 | 12.5 | 29.5 | 18 | 36.7 | 35.5 | > 100 |
| Cc1[nH]c(=O)[nH]c(=O)c1CO | > 100 | > 100 | > 100 | > 100 | > 100 | > 100 | > 100 | > 100 | > 100 | > 100 | > 100 | > 100 | > 100 | > 100 | > 100 | > 100 | > 100 | > 100 |
| NCc1nnn(Cc2ccccc2)c1N | – | > 100 | – | > 100 | – | > 100 | – | > 100 | – | > 100 | – | > 100 | – | > 100 | – | > 100 | – | > 100 |
| CN(C)CCCc1c[nH]c2ccccc12 | – | > 100 | – | > 100 | – | > 100 | – | > 100 | – | > 100 | – | > 100 | – | > 100 | – | > 100 | – | > 100 |
